Data taken from US20260013504A1, “HERBICIDAL MIXTURE, HERBICIDAL COMPOSITION, METHOD, USE, AND KITS FOR CONTROLLING UNDESIRABLE VEGETATION” (ADAMA AGAN LTD., priority 2022, published 2026).

How the values were obtained:
Format in all cases: in vivo
Galium aparine = experiment: Pot experiment, soil treatment, control of Galium aparine (fresh weight, Colby)
Protocol: (§1) Referring to an article of Colby, S. R. i.e., Calculation of the synergistic and antagonistic response of herbicide combinations.
(§2) E0-E value is calculated to evaluate the combined effect of pyroxasulfone and the second herbicide selected from the group consisting of fluorochloridone, aclonifen, diflufenican and terbutryn on the selected weeds.
(§3) In this Example, the herbicidal activity of treatments by a mixture of pyroxasulfone and the second herbicide selected from the group consisting of fluorochloridone, aclonifen, diflufenican and terbutryn for controlling Aegilops tauschii was investigated by a pot experiment. This Example was carried out in accordance with “NY/T 1155.4-2006 Guidelines for Indoor Bioassay Tests of Pesticides, Herbicides Part 4: Activity Determination Tests, Stem and Leaf Spray Method”. • Source of the agrochemicals tested were: • Pyroxasulfone: pyroxasulfone (850g/Kg, WG) from Adama Agan LTD. • Fluorochloridone: fluorochloridone (250 g/L, EC) from Adama Agan LTD. • Aclonifen: aclonifen (600 g/L, SC) from Adama Agan LTD. • Diflufenican: diflufenican (50g/Kg, WP) from Bayer. • Terbutryn: terbutryn (50g/Kg, SC) from Zhejiang Zhongshan Chemical Industry Group Co., Ltd. • Cultivation of test materials: The test soil was formed by mixing the 20 cm layer loam on the ground surface and the culture medium in a ratio of 3:1 as cultivation soil. Weeds were cultivated in an artificial climate chamber. The daytime and nighttime temperatures were set at 22° C. and 19° C., respectively, and the illumination was set at daytime: dark time 12h: 12h.
(§4) A certain amount of Aegilops tauschii seeds were sown in a plastic pot with a diameter of 9 cm, covering with 1-2 mm soil, and putting them in an enamel dish filled with water. The bottom infiltration method was used to water them, the agrochemicals tested in this Example were applied on the second day after sowing Aegilops tauschii seeds.
(§5) Spraying treatment: ASS-4 automatic control spraying system with a fan-shaped nozzle was used indoors to spray the agrochemicals, the running speed was adjusted based on nozzle pressure, flow rate, etc. to spray 50 mL of liquid of agrochemicals on the actual spray area of 1.1 m2 (equivalent to 30 liters per mu), arranging the plastic pots to be processed on the spraying table evenly, and spraying evenly. The spraying pressure was 0.35 MPa, and the flow rate of the fan-shaped nozzle was 800 mL/min, spraying in order from low dosage to high dosage. Each treatment was repeated 3 times. After spraying, the plastic pots were dried for one day, placed in an artificial climate chamber, and watered regularly to keep moist.
(§6) Weed investigation method and time: after applying the agrochemicals, the symptoms of weed damage (such as growth inhibition, chlorosis, deformity, etc.) were recorded in detail. After 35 days, the fresh weight of aerial part of the weeds in each treatment was weighed, and the measured fresh weight inhibition rate and the measured fresh weight survival rate for each treatment were calculated according to the following equations: […]
Example 4 was conducted substantially the same way as Example 1, except that Galium aparine was used instead of Aegilops tauschii.

Solanum nigrum = experiment: Pot experiment (glass greenhouse), soil treatment, control of Solanum nigrum (fresh weight, Colby)
Protocol: as §1, §2, §3, §4, §5, §6
Example 6 was substantially conducted in the same as Example 1, except that (1) Solanum nigrum was used instead of Aegilops tauschii, (2) in “Cultivation of test materials” part, Solanum nigrum was cultivated in a glass greenhouse instead of an artificial climate chamber at a temperature of 25 to 33° C. with a natural illumination, and (3) in “Spraying treatment” part, after spraying and drying, the plastic pots were placed in a glass greenhouse instead of an artificial climate chamber.

Lithospermum arvense = experiment: Pot experiment, soil treatment, control of Lithospermum arvense (fresh weight, Colby)
Protocol: as §1, §2, §3, §4, §5, §6
Example 5 was conducted substantially the same way as Example 1, except that Lithospermum arvense was used instead of Aegilops tauschii.

Bromus japonicus = experiment: Pot experiment, soil treatment, control of Bromus japonicus (fresh weight, Colby); conditions: mixtures: both AIs at these rates, after 35 days
Protocol: as §1, §2, §3, §4, §5, §6
Example 3 was conducted in substantially the same way as Example 1, except that Bromus japonicus was used instead of Aegilops tauschii.

Lolium multiflorum Lamk = experiment: Pot experiment, soil treatment, control of Lolium multiflorum Lamk (fresh weight, Colby); conditions: mixtures: both AIs at these rates, after 35 days
Protocol: as §1, §2, §3, §4, §5, §6
Example 2 was conducted in substantially the same way as Example 1, except that Lolium multiflorum Lamk was used instead of Aegilops tauschii.

Aegilops tauschii = experiment: Pot experiment, soil treatment, control of Aegilops tauschii (fresh weight, Colby); conditions: mixtures: both AIs at these rates, after 35 days
Source text: as §1
E0 is the theoretical fresh weight survival rate for the mixture of pyroxasulfone and the second herbicide selected from the group consisting of fluorochloridone, aclonifen, diflufenican and terbutryn;
X is the measured fresh weight survival rate for pyroxasulfone used alone at the same dosage as that in the mixture;
Y is the measured fresh weight survival rate for the second herbicide selected from the group consisting of fluorochloridone, aclonifen, diflufenican and terbutryn used alone at the same dosage as that in the mixture;
E is the measured fresh weight survival rate for the mixture of pyroxasulfone and the second herbicide selected from the group consisting of fluorochloridone, aclonifen, diflufenican and terbutryn.
as §2, §3, §4, §5, §6

[1] = g ai/ha: pyroxasulfone 11.25, fluorochloridone 31.25, aclonifen 150, diflufenican 14.0625, terbutryn 140.625
[2] = g ai/ha: pyroxasulfone 22.5, fluorochloridone 62.5, aclonifen 300, diflufenican 28.125, terbutryn 281.25
[3] = g ai/ha: pyroxasulfone 45, fluorochloridone 125, aclonifen 600, diflufenican 56.25, terbutryn 562.5
[4] = g ai/ha: pyroxasulfone 90, fluorochloridone 250, aclonifen 1200, diflufenican 112.5, terbutryn 1125
[5] = g ai/ha: pyroxasulfone 180, fluorochloridone 500, aclonifen 2400, diflufenican 225, terbutryn 2250
[6] = g ai/ha: pyroxasulfone 360, fluorochloridone 1000, aclonifen 4800, diflufenican 450, terbutryn 4500

3-chloro-4-(chloromethyl)-1-(3-(trifluoromethyl)phenyl)-2-pyrrolidione [fluorochloridone]
Measured fresh weight inhibition rate (%) (Galium aparine; 31.25 g ai/ha): 63.0% | Measured fresh weight survival rate (%) - E (Galium aparine; 31.25 g ai/ha): 37.0% | Measured fresh weight inhibition rate (%) (Galium aparine; 62.5 g ai/ha): 84.9% | Measured fresh weight survival rate (%) - E (Galium aparine; 62.5 g ai/ha): 15.1% | Measured fresh weight inhibition rate (%) (Galium aparine; 125 g ai/ha): 93.2% | Measured fresh weight survival rate (%) - E (Galium aparine; 125 g ai/ha): 6.8% | Measured fresh weight inhibition rate (%) (Galium aparine; 250 g ai/ha): 95.9% | Measured fresh weight survival rate (%) - E (Galium aparine; 250 g ai/ha): 4.1% | Measured fresh weight inhibition rate (%) (Galium aparine; 500 g ai/ha): 100.0% | Measured fresh weight survival rate (%) - E (Galium aparine; 500 g ai/ha): 0.0% | Measured fresh weight inhibition rate (%) (Solanum nigrum; 31.25 g ai/ha): 18.8% | Measured fresh weight survival rate (%) - E (Solanum nigrum; 31.25 g ai/ha): 81.2% | Measured fresh weight inhibition rate (%) (Solanum nigrum; 62.5 g ai/ha): 32.5% | Measured fresh weight survival rate (%) - E (Solanum nigrum; 62.5 g ai/ha): 67.5% | Measured fresh weight inhibition rate (%) (Solanum nigrum; 125 g ai/ha): 67.1% | Measured fresh weight survival rate (%) - E (Solanum nigrum; 125 g ai/ha): 32.9% | Measured fresh weight inhibition rate (%) (Solanum nigrum; 250 g ai/ha): 99.6% | Measured fresh weight survival rate (%) - E (Solanum nigrum; 250 g ai/ha): 0.4% | Measured fresh weight inhibition rate (%) (Solanum nigrum; 500 g ai/ha): 100.0% | Measured fresh weight survival rate (%) - E (Solanum nigrum; 500 g ai/ha): 0.0% | Measured fresh weight inhibition rate (%) (Lithospermum arvense; 31.25 g ai/ha): 47.8% | Measured fresh weight survival rate (%) - E (Lithospermum arvense; 31.25 g ai/ha): 52.2% | Measured fresh weight inhibition rate (%) (Lithospermum arvense; 62.5 g ai/ha): 97.1% | Measured fresh weight survival rate (%) - E (Lithospermum arvense; 62.5 g ai/ha): 2.9% | Measured fresh weight inhibition rate (%) (Lithospermum arvense; 125 g ai/ha): 98.6% | Measured fresh weight survival rate (%) - E (Lithospermum arvense; 125 g ai/ha): 1.4% | Measured fresh weight inhibition rate (%) (Lithospermum arvense; 250 g ai/ha): 100.0% | Measured fresh weight survival rate (%) - E (Lithospermum arvense; 250 g ai/ha): 0.0% | Measured fresh weight inhibition rate (%) (Lithospermum arvense; 500 g ai/ha): 100.0% | Measured fresh weight survival rate (%) - E (Lithospermum arvense; 500 g ai/ha): 0.0% | Measured fresh weight inhibition rate (%) (Bromus japonicus; [1]): 94.8% | Measured fresh weight survival rate (%) - E (Bromus japonicus; [1]): 5.2% | Measured fresh weight inhibition rate (%) (Bromus japonicus; [2]): 96.9% | Measured fresh weight survival rate (%) - E (Bromus japonicus; [2]): 3.1% | Measured fresh weight inhibition rate (%) (Bromus japonicus; [3]): 100.0% | Measured fresh weight survival rate (%) - E (Bromus japonicus; [3]): 0.0% | Measured fresh weight inhibition rate (%) (Bromus japonicus; [4]): 100.0% | Measured fresh weight survival rate (%) - E (Bromus japonicus; [4]): 0.0% | Measured fresh weight inhibition rate (%) (Bromus japonicus; [5]): 100.0% | Measured fresh weight survival rate (%) - E (Bromus japonicus; [5]): 0.0% | Measured fresh weight inhibition rate (%) (Lolium multiflorum Lamk; [1]): 93.2% | Measured fresh weight survival rate (%) - E (Lolium multiflorum Lamk; [1]): 6.8% | Measured fresh weight inhibition rate (%) (Lolium multiflorum Lamk; [2]): 96.4% | Measured fresh weight survival rate (%) - E (Lolium multiflorum Lamk; [2]): 3.6% | Measured fresh weight inhibition rate (%) (Lolium multiflorum Lamk; [3]): 98.4% | Measured fresh weight survival rate (%) - E (Lolium multiflorum Lamk; [3]): 1.6% | Measured fresh weight inhibition rate (%) (Lolium multiflorum Lamk; [4]): 100.0% | Measured fresh weight survival rate (%) - E (Lolium multiflorum Lamk; [4]): 0.0% | Measured fresh weight inhibition rate (%) (Lolium multiflorum Lamk; [5]): 100.0% | Measured fresh weight survival rate (%) - E (Lolium multiflorum Lamk; [5]): 0.0% | Measured fresh weight inhibition rate (%) (Lolium multiflorum Lamk; [6]): 100.0% | Measured fresh weight survival rate (%) - E (Lolium multiflorum Lamk; [6]): 0.0% | Measured fresh weight inhibition rate (%) (Aegilops tauschii; [1]): 0.0% | Measured fresh weight survival rate (%) - E (Aegilops tauschii; [1]): 100.0% | Measured fresh weight inhibition rate (%) (Aegilops tauschii; [2]): 7.9% | Measured fresh weight survival rate (%) - E (Aegilops tauschii; [2]): 92.1% | Measured fresh weight inhibition rate (%) (Aegilops tauschii; [3]): 11.0% | Measured fresh weight survival rate (%) - E (Aegilops tauschii; [3]): 89.0% | Measured fresh weight inhibition rate (%) (Aegilops tauschii; [4]): 49.4% | Measured fresh weight survival rate (%) - E (Aegilops tauschii; [4]): 50.6% | Measured fresh weight inhibition rate (%) (Aegilops tauschii; [5]): 79.3% | Measured fresh weight survival rate (%) - E (Aegilops tauschii; [5]): 20.7% | Measured fresh weight inhibition rate (%) (Aegilops tauschii; [6]): 93.9% | Measured fresh weight survival rate (%) - E (Aegilops tauschii; [6]): 6.1%
